Laboratory results published in ChEMBL document CHEMBL6153160, “Novel 3-Cycloaminoindole Compounds as Serotonergic Psychedelic Agents for Treating Psychosis, Mental Illness, and CNS Disorders” (ACS Med Chem Lett, 2025).

Molecular target: 5-hydroxytryptamine receptor 2A (Homo sapiens, UniProt P28223)
Assay: Displacement of [3H]-ketanserin from human 5-HT2A receptor incubated for 90 mins by microbeta2 microplate counter assay

5-hydroxytryptamine receptor 2A, sequence (P28223 whole entry): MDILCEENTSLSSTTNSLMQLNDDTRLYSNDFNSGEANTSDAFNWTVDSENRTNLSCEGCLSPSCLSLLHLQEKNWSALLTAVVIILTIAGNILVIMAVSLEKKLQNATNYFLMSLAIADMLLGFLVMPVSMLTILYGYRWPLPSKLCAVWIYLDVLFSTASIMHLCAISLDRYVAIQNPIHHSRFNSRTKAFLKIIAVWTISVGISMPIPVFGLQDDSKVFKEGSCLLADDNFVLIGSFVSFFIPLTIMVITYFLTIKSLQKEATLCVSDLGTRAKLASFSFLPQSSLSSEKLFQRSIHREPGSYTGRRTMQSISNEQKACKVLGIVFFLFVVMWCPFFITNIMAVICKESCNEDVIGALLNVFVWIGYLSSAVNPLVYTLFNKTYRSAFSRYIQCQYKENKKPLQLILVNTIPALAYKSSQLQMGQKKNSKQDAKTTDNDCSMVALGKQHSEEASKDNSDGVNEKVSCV

Structure (SMILES) | IC50 [nM]
[2H]c1[nH]c2c([2H])c([2H])c([2H])c([2H])c2c1C1CC([2H])([2H])N(C)C1([2H])[2H] (stereo not drawn) | < 500
[2H]c1[nH]c2c([2H])c([2H])c([2H])c([2H])c2c1C1CCN(C)C1 (stereo not drawn) | < 500
CN(C)CCc1c[nH]c2ccccc12 | < 500
